Measured values as given in patent US10273278B2, “Epitope recognized by anti-interferon gamma autoantibodies in patients with disseminated mycobacterial infections and the application therefor” (priority 2015, dated 2019).
Ends that are not written are not given here.

How the values were obtained:
[1] = test system: anti-IFNr AutoAbs; test: Competition ELISA against coated peptide 6; type: binding, human; conditions: patient plasma pre-incubated with 5-30 μg/mL competitor peptide
Method: To evaluate the specificity of the reaction, a competition ELISA experiment was performed. Each plasma sample (1:100 dilutions) was pre-incubated with different concentrations (5-30 μg/mL) of the competition peptides overnight at 4° C. Subsequently, all plasma and different concentrations competition peptides mixture samples were examined following the epitope mapping protocol. Peptide 6 was coated with b-carbonate buffer (pH 9.6) at 4° C. overnight. After blocking at 37° C. for 1 hour, all pre-incubated plasma and different concentrations competition peptides mixture samples were added in duplicate. Following 2 hours of room temperature incubation, goat anti-human IgG Fcr fragment specific conjugated with alkaline phosphate, was added. Finally, 100 μL of pNPP was added and the reaction was read at 405 nm by a VICTOR X3 Multilabel Plate Reader (PerkinElmer) after 30 minutes of incubation at 37° C.

[2] = test system: anti-IFNr AutoAbs; test: Epitope mapping ELISA of synthetic peptides with blood plasma; type: binding, human; conditions: for recognition of synthetic peptide by blood plasma: plasma from anti-IFNr AutoAbs patients (group-1), 1:100, OD 405 nm
Method: Clear polystyrene 96-well flat bottom plates (Nunc) were coated with 100 μL of peptide solution (5 μg/mL) with b-carbonate buffer (pH 9.6) at 4° C. overnight. After blocking the remaining binding sites with 5% human normal serum albumin (Aventis) in PBS, the plates were incubated at 37° C. for 1 hour. Afterward, the plates were washed 3 times with 0.5% Tween 20 in PBS.
Blood plasma samples were added at a 1:100 dilution, in PBS containing 5% human normal serum albumin. Following incubation at room temperature for 2 hours and being washed 3 times, goat anti-human IgG Fcr fragment specific conjugated with alkaline phosphate (Jackson ImmunoResearch Laboratories), was added at a 1:5000 dilution, and the plates were kept for 1 hour at room temperature. Finally, after being washed 5 times, 100 μL of p-Nitrophenyl Phosphate (pNPP) was added and the reaction was read at 405 nm by a VICTOR X3 Multilabel Plate Reader (PerkinElmer) after 30 minutes of incubation at 37° C.

[3] = test system: THP1 cells; test: p-STAT1 in THP1 cells pre-incubated with sera of immunized rats and treated with IFNr; type: cell-based; conditions: 50% sera
[4] = test system: WKY/NcrlNarl rats; test: Immunization of rats with Noc2 or IFNr peptide conjugated with OVA; type: in vivo, rat; conditions: 0.25 mg peptide-OVA, booster every two weeks
Method: The inventor immunized WKY/NcrlNarl rats with 0.25 mg Noc2 or IFNr[…] peptide (Noc2: […] (SEQ NO: 31); IFNr: […] (SEQ NO: 32)) conjugated with ovalbumin (OVA) and gave a booster dose every two weeks after the initial injection (day 0). After 70 days, the inventor checked the antibody production level by dot blot or ELISA at each injection. All rats were sacrificed ten days after the tenth injection (day 136) and whole blood was collected. After collection of the whole blood, the blood was allowed to clot by leaving it undisturbed at room temperature 15 minutes. Clots were removed by centrifuging at 1500 g for 10 minutes in a refrigerated centrifuge. Sera were aliquoted and stored at −20° C. for further use.
Blood sera from pre-immunized rats (n=6), Noc2 peptide-immunized rats (n=4) and Peptide 6-immunized rats (n=2) were mapped to control peptide, Peptide 6 and Noc2 peptide from Aspergillus terreus or Aspergillus fumigatus. This is represented as the mean optical density (OD) at 405 nm.

[5] = test system: p-STAT1 in PBMCs; test: p-STAT1 intracellular stain in PBMCs (CD14+ gated); type: cell-based, human
Method: A total of 10^6 PBMCs in 200 μL RPMI-1640 with 10% FBS and 1% penicillin/streptomycin was used. […] After 30 minutes of stimulation in a 37° C. incubator, monocytes were identified by FITC-CD14 (BD Pharmingen) surface staining. Fixed by adding 250 μL of FASC lysing solution (BD Pharmingen) and incubated at room temperature for 15 minutes in the dark, followed by two washes with PBS. To permeabilize the cells, 500 μl of ice-cold absolute methanol was added to each tube and incubated for 15 minutes on ice in the dark, followed by two washes with PBS. Next, PE-phospho-STAT1 (pY701) antibody (BD Pharmingen) was added, followed by 30 minutes incubation on ice in the dark. Again, cells were washed with 2 mL of PBS before resuspension in the 500 μL of PBS. Data were collected with a FACSVerse flow cytometer (BD Biosciences) and analyzed using FACSuite software (BD Biosciences).
Representative histograms (FIG. 2c(1)-FIG. 2c(2)) and MFI (median fluorescence intensity) (FIG. 2d) are shown.
After being gated on the CD14^+, p-STAT-1 levels were determined by flow cytometry with the p-STAT-1 monoclonal antibody. Representative histograms (FIG. 4a(1)-FIG. 4a(2)) and MFI (median fluorescence intensity) (FIG. 4b) are shown.

[6] = test system: HLA-DR expression in PBMCs; test: HLA-DR expression in PBMCs (CD14+ gated); type: cell-based, human; conditions: IFNr AutoAbs patients' PBMCs pre-incubated with 10% autologous plasma
Method: A total of 10^6 PBMCs in 200 μL RPMI-1640 with 10% FBS and 1% penicillin/streptomycin was used. Cells were then stimulated with 500 IU IFNr, IFNr_1-131 or EE-IFNr⋅ in 160 μL RPMI-1640 pre-incubated with 40 μL of normal blood plasma or patient blood plasma for 10 min at room temperature. After 24 hours of stimulation in a 37° C. incubator, monocytes were identified by FITC-CD14 (BD Pharmingen) surface staining. Next, PE-HLA-DR antibody (BD Pharmingen) was added followed by 30 minutes of incubation on ice in the dark. Cells were again washed with 2 ml of PBS before resuspension in 500 μl of PBS. Data were collected with a FACSVerse flow cytometer (BD Biosciences) and analyzed using FACSuite software (BD Biosciences).
After being gated on the CD14^+, HLA-DR expression levels were determined by flow cytometry with the HLA-DR monoclonal antibody. Representative histograms (FIG. 4d(1)-FIG. 4d(2)) and MFI (median fluorescence intensity) (FIG. 4e) are shown.

[7] = test system: IL-12p40 in whole blood; type: cell-based, human
[8] = test system: p-STAT1 in whole blood; test: p-STAT1 in whole blood ex vivo; type: cell-based, human
Text: Representative histograms (FIG. 4f(1)-FIG. 4f(2)) and MFI (median fluorescence intensity) (FIG. 4g) are shown.

[9] = test system: IL-12p40 in PBMCs; type: cell-based, human
[10] = test system: anti-IFNr AutoAbs; test: Immunoblotting (Western blot / dot blot) with patient or control plasma; type: binding, human; conditions: plasma from healthy donors
Method: Recombinant IFNr[…] (R&D Systems) and different truncated forms of recombinant IFNr[…] were subjected to SDS-PAGE using a 10% gel under reducing conditions at 120 V for 2 hours. The proteins were transferred to a PVDF membrane (Invitrogen Life Technologies) at 250 mA for 2 hours. The membrane was blocked in 5% human normal serum albumin (Aventis) in TBS with 0.1% Tween 20 overnight at 4° C. The membrane was incubated with a 1/100 dilution of patient or control blood plasma for 3 hours at room temperature. After being washed three times, the membrane was incubated in a 1/10,000 dilution of mouse anti-human IgG conjugated with horseradish peroxidase (Jackson ImmunoResearch Laboratories) for 1 hour at room temperature. After being washed three times, the membrane was developed with ECL (Merck Millipore).
Plasma from 3 healthy donors had no response to either IFNr1-131 or EE-IFNr.

[11] = test system: THP1 cells; test: HLA-DR expression in THP1 cells; type: cell-based; conditions: in the presence of anti-IFNr AutoAbs
[12] = test system: anti-IFNr AutoAbs; test: Protein mapping ELISA of recombinant IFNr proteins with blood plasma; type: binding, human; conditions: patients' blood plasma, OD 405 nm
[13] = molecular target: T1, human IFNr (Homo sapiens, UniProt P01579); test: Blocking of hIFNr detection by sera of immunized rats; type: binding; conditions: sera incubated with 200 pg/mL of human IFNr
T1 sequence (P01579 24-166): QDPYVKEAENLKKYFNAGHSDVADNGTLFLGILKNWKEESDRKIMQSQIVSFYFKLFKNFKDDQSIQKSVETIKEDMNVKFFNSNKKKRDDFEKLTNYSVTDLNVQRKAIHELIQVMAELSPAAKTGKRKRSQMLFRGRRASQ
Method: Blood plasma from patients and donors was serially diluted (10^−1 to 10^−6) and incubated with recombinant human IFNr at a final concentration of 200 pg/mL for 1 hour at 37° C. The IFNr level was measured with a human IFNr ELISA kit from BD Biosciences according to the manufacturer's recommendations. All experiments were performed in duplicate.
However, blood sera from Noc2 peptide-immunized rats (n=4) and Peptide 6-immunized rats (n=2) at dilutions of up to 1/10^2 inhibited the detection of hIFNr.

peptide 6: 30-mer synthetic peptide of human IFNr, P114-143 (IQVMAELSPAAKTGKRKRSQMLFRGRRASQ; UniProt P01579 137-166, looked up, fragment)
competition for AutoAbs binding to coated peptide 6 [1]: competition for the binding with coated peptide 6 in a dose dependent manner | recognition of synthetic peptide by blood plasma [2]: recognized in the blood plasma isolated from the 12 patients in group-1 | recognition of synthetic peptide by non-neutralizing AutoAbs ([2]; plasma from healthy donors with non-neutralizing IFNr AutoAbs): did not recognize

CTPKTGKRKRSEQ
p-STAT1 signaling after recombinant IFNr in presence of sera of immunized rats [3]: decreased up-regulation of p-STAT1 signaling | antibodies developed after immunization [4]: developed anti-Noc2 antibodies that cross-reacted with human IFNr

KKDVTPKTGKRKRSEQQKDE (KKDVPPKTGKRKRSEQQKDE; listed as Aspergillus terreus) [Aspergillus Noc2 peptide]
competition for AutoAbs binding to coated peptide 6 [1]: compete for IFNr AutoAbs binding with peptide 6 in a dose dependent manner | recognition of synthetic peptide by blood plasma [2]: recognized by blood plasma isolated from patients with anti-IFNr AutoAbs | binding of synthetic peptide by blood plasma ([2]; plasma from mycobacteria infected patients without AutoAbs / healthy controls): did not react

EE-IFNr: IFNr_1-131 protein with human P121-127 SPAAKTG sequence substituted with murine LPESSLR sequence (SEQ NO: 1) (listed as Mus musculus)
p-STAT1 signaling restored / up-regulated ([5]; IFNr AutoAbs patients' PBMCs pre-incubated with 10% autologous blood plasma): four of six | phosphorylation of STAT1 ([5]; controls' PBMCs pre-incubated with 20% blood plasma with anti-IFNr AutoAbs from patients): could induce the phosphorylation of STAT1 | p-STAT1 signaling ([5]; controls' PBMCs, 20% control blood plasma): Up-regulation of the p-STAT1 signaling was observed | HLA-DR expression levels restored / up-regulated [6]: four of six | IL-12p40 production restored [7]: three of six | p-STAT1 signaling restored / up-regulated ([8]; IFNr AutoAbs patients' whole blood): four of six | p-STAT1 signal ([8]; controls' whole blood): up-regulated | IL-12p40 expression [9]: did restore IL-12p40 expression | IL-12p40 production restored [9]: three of six | binding of plasma from healthy controls in Western blot [10]: no response | HLA-DR expression [11]: up-regulation of HLA-DR expression | affinity of anti-IFNr AutoAbs by ELISA [12]: markedly decreased in comparison with wild type (WT) IFNr_1-131

CAAKTGKRKRSQM (also: conjugated to ovalbumin; UniProt P01579 146-157, looked up, fragment)
p-STAT1 signaling after recombinant IFNr in presence of sera of immunized rats [3]: decreased up-regulation of p-STAT1 signaling | blocking of hIFNr detection by sera of immunized rats (serum dilution) [13]: can block human recombinant IFNr | antibodies developed after immunization [4]: developed antibodies to human IFNr, which could cross-react with Aspergillus Noc2
